Experimental findings from patent publication US20080004271A1, “Inhibitors of TNFalpha, PDE4 and B-RAF, compositions thereof and methods of use therewith” (priority 2006, published 2008) are described below.

pIC50: −log10 of the molar value.

Experiment [1] relates to pMEK1/2 in A375 cells. The experiment can be described thus: A375 pMEK1/2 Meso Scale Assay. The settings on record: Homo sapiens, A-375, 2 h; A375 pMEK1/2, about two hours incubation. The format is cell-based. As for the experimental part:
On the afternoon of Day 1, cells are plated in a 96-well flat bottom cell culture plate at about 50,000 cells/well in a volume of 100 μl. On the morning of Day 2, serial dilutions of test compound(s) are added to the plate. The plate is incubated for about two hours at 37° C., […]. The plate is blocked about five minutes before the compound incubation step is completed by adding 150 μl/well of MSD (Meso Scale Discovery) blocking solution-A (prepared with 20 ml 1× Tris wash buffer (25 ml of 10× Tris buffer+225 ml deionized water) and 600 mg MSD blocker A) and incubating with vigorous shaking at room temperature for one hour. The plate is washed 4× with 1× Tris wash buffer.
Cells are harvested and lysates prepared by removing medium, washing 1× with ice-cold PBS (calcium and magnesium free), adding 50 μl/well Complete Tris buffer and incubating with shaking at 4° C. for one hour. Lysate samples (25 μl) are added to an MSD Multi-Spot plate and incubated with vigorous shaking at room temperature for two hours. The plate is washed 1× with Tris wash buffer.
25 μl/well of […] detection antibody (Anti-pMEK1/2 antibody; SULFO-TAG labeled, light sensitive) in 3 ml of cold antibody dilution buffer (1 ml blocking solution-A, 1.82 ml 1× Tris wash buffer, 150 μl 2% MSD blocker D-M and 30 μl 10% MSD blocker D-R) is added and the plate is incubated with vigorous shaking at room temperature in the dark for one hour. The plate is washed 1× with Tris wash buffer.
150 μl/well of 1× MSD Read buffer T (with surfactant) is added to the plate and the plate is read using a MSD Sector instrument.

Experiment [2] deals with T1, V600E mutant B-RAF (Homo sapiens, UniProt P15056, V600E).
T1 construct: purchased Upstate
T1 sequence (P15056 whole entry V600E): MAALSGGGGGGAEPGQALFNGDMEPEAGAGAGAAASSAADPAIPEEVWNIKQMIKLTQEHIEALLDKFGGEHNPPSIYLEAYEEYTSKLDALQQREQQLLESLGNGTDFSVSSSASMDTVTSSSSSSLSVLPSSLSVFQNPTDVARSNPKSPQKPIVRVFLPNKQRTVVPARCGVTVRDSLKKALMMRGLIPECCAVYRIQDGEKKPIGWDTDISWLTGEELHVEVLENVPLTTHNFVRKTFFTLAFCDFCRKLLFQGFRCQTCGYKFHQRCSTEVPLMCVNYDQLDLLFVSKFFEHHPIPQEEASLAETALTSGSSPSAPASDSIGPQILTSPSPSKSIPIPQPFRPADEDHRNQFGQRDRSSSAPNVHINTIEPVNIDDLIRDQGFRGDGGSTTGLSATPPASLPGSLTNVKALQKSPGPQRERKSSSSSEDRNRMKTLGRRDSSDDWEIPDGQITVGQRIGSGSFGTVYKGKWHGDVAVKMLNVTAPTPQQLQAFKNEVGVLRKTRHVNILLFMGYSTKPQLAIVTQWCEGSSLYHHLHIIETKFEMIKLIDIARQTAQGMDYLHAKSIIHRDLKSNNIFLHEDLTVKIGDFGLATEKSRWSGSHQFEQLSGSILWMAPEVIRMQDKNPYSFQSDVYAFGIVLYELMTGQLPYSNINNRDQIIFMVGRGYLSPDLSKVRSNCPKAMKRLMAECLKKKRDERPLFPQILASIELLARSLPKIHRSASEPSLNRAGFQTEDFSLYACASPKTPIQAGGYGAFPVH
Description: V600E Mutant B-RAF 33P Assay. The format is biochemical. On the procedure: Substrate (HIS-MEK1 K97M) is prepared by Celgene Corp. as described above.
Test compound is diluted in 100% DMSO (600 μM). […] Substrate mixture is prepared as 7.5 μM HIS-MEK1 K97M in assay buffer. ATP mixture is prepared as 300 μM ATP, 75 mM MgCl2, 0.05 μCi/μl ^33P ATP in assay buffer.
In a 96 well assay plate (Falcon Polylpropylene well U-bottom), the following are added to each well: 2.5 μl of test compound solution (serial dilutions), 20 μl of substrate mixture and 17.5 μl of enzyme mixture. The plate is incubated for at least 15 minutes. 10 μl of ATP mixture is added and the plate is incubated at room temperature for about 60 minutes. 80 μl of 12.5% TCA is added to each well, and the plate is incubated for at least 20 minutes. The contents of the plate is transferred to a glass fiber filter plate (Millipore) using a Packard Harvester (washing 10× with 1×PBS). 50 μl of Scintillation-20 fluid is added to each well. The plate is read using a Packard TopCount.

Experiment [3] concerns A375 cells. The experiment can be described thus: Alamar Blue Viability Assay. The class given is cell-based. The settings on record: Homo sapiens, A-375, 72 h, 3 days. As for the experimental part:
A375 cells (ATCC # CRL-1619; Passage 4˜15; doubling time is roughly 18 hours) are used. Culture medium is DMEM (high glucose, with L-glutamine)+10% FBS+Pen/Strep. Cells are passed every three days at 1:20.
200 μl of medium only is added into all wells along the edges of a 96-well flat bottom plate and 180 μl of cell suspension (containing 1,000 cells) per well is added into the plate with a Low Evaporation Lid (Costar Cat # 3595). The cells are cultured overnight. Compounds and controls are diluted according to standard compound dilution protocol described below. From 30 mM stock solution, 10 mM, 3 mM, 1 mM, and 0.3 mM solutions in 100% DMSO are prepared using the following serial dilution protocol:
The 30, 10, 3, 1 and 0.3 mM solutions are diluted 1:50 (DMSO:medium) by adding 4 μl of each to 196 μl of culture medium. This yields 600 μM, 200 μM, 60 μM, 20 μM, and 6 μM secondary stock solutions. 4 μl of DMSO are added to 196 μl medium for the DMSO control as well. 20 μl of compound dilutions, including the DMSO control locations (Row G, Columns 2-10 are DMSO control wells), are added in triplicate to the cells in the 96-well plate using a repeat pipettor (see plate layout below). This yields final concentrations of 60 μM, 20 μM, 6 μM, 2 μM, and 0.6 μM containing 0.2% DMSO in each well. The plate is gently tapped to evenly distribute compound within the well. The plate is incubated at 5% CO2 at 37° C. for 3 days.
20 μl of Alamar Blue (Biosource #DAL-1100) is added to each well. The plate is incubated in 5% CO2 incubator for 4 hours. Fluorescence is measured with excitation wavelength at 530 nm and emission wavelength at 590 nm using a Victor 2 multilabel plate reader (Perkin Elmer). Data is saved with plate format as a Text file and entered into ActivityBase (Cell-based SAR; Prolif-Alamar; MTT 5 plates unfixed fit) to calculate the percent of DMSO values for each compound set of triplicate wells and IC50 curves are plotted.
In general terms: Alamar Blue is a resazurin reagent that responds to reducing activity.

Turning to `NC(=O)c1sc2nc(NC3CC3)nc(-c3ccc(Cl)cc3)c2c1N` [Example 5], the figures for the pIC50 in experiment [1], in experiment [2] and in experiment [3] were 5.00 to 7.00, 5.00 to 7.00 and 4.70 to 5.00, respectively.

Take `NC(=O)c1sc2nc(NC3CC3)nc(-c3ccc4c(c3)OCC4)c2c1N` [Example 162]: the results for the pIC50 in experiment [1], in experiment [2] and in experiment [3] were 5.00 to 7.00, 5.00 to 7.00 and 4.70 to 5.00, respectively.

Take `NC(=O)c1sc2nc(NC3CC3)nc(-c3ccc(Cl)nc3)c2c1N` [Example 169]: the values for the pIC50 in experiment [1], in experiment [2] and in experiment [3] were 5.00 to 7.00, 5.00 to 7.00 and 4.52 to 4.70, respectively.

With `NC(=O)c1sc2nc(NC3CC3)nc(-c3cncc(Cl)c3)c2c1N` [Example 171], the pIC50 in experiment [1] was 5.00 to 7.00; in experiment [2] it was 5.00 to 7.00; in experiment [3] it was 4.52 to 4.70.

For the compound `CCOc1cncc(-c2nc(NC(C)(C)CO)nc3sc(C(N)=O)c(N)c23)c1` [Example 172], the pIC50 in experiment [1] was below 4.22; in experiment [2] it was 4.22 to 4.52; in experiment [3], below 4.22.

`CC[C@H](CO)Nc1nc(-c2cncc(OC)c2)c2c(N)c(C(N)=O)sc2n1` [Example 174]: the pIC50 in experiment [1], in experiment [2] and in experiment [3] was 5.00 to 7.00 throughout.

Turning to `CC[C@@H](CO)Nc1nc(-c2cncc(OC)c2)c2c(N)c(C(N)=O)sc2n1` [Example 175], the pIC50 in experiment [1] is 5.00 to 7.00; in experiment [2], 5.00 to 7.00; in experiment [3], 4.70 to 5.00.

With `NC(=O)c1sc2nc(N)nc(-c3cccc(O)c3)c2c1N` [Example 185], the pIC50 in experiment [1], in experiment [2] and in experiment [3] was 5.00 to 7.00 in each case.

For `Cc1ccc(-c2nc(NC3CC3)nc3sc(C(N)=O)c(N)c23)cc1C` [Example 188], the pIC50 in experiment [1] was 5.00 to 7.00; in experiment [2] it was 5.00 to 7.00; in experiment [3] it was 4.70 to 5.00.

Consider `NC(=O)c1sc2nc(C3CC3)nc(-c3ccc(Cl)c(Cl)c3)c2c1N` [Example 189], for which the pIC50 in experiment [1] is 4.52 to 4.70; in experiment [2], 5.00 to 7.00; in experiment [3], 5.00 to 7.00.

In the case of `CC[C@@H](CO)Nc1nc(-c2cc(O)cc(Cl)c2)c2c(N)c(C(N)=O)sc2n1` [Example 191], the pIC50 in experiment [1], in experiment [2] and in experiment [3] was 5.00 to 7.00 throughout.

For `CC[C@H](CO)Nc1nc(-c2cc(O)cc(Cl)c2)c2c(N)c(C(N)=O)sc2n1` [Example 192], the pIC50 in experiment [1], in experiment [2] and in experiment [3] was 5.00 to 7.00 throughout.

Take `NC(=O)CCNc1nc(-c2ccc(Cl)c(Cl)c2)c2c(N)c(C(N)=O)sc2n1` [Example 202]: the pIC50 in experiment [1] is 4.52 to 4.70; in experiment [2], 5.00 to 7.00; in experiment [3] it was 4.70 to 5.00.

Consider `NC(=O)c1sc2nc(NC(CO)CO)nc(-c3ccc(Cl)c(Cl)c3)c2c1N` [Example 204], for which the pIC50 was 4.70 to 5.00 in experiment [1], 5.00 to 7.00 in experiment [2] and 4.52 to 4.70 in experiment [3].

With `C[C@H](O)CNc1nc(-c2ccc(Cl)c(Cl)c2)c2c(N)c(C(N)=O)sc2n1` [Example 205], the figures for the pIC50 in experiment [1], in experiment [2] and in experiment [3] were 4.52 to 4.70, 5.00 to 7.00 and 4.52 to 4.70, respectively.

On to `C[C@@H](O)CNc1nc(-c2ccc(Cl)c(Cl)c2)c2c(N)c(C(N)=O)sc2n1` [Example 206], for which the pIC50 in experiment [1] is 4.52 to 4.70; in experiment [2], 5.00 to 7.00; in experiment [3], 4.52 to 4.70.

For the compound `CC[C@@H](CO)Nc1nc(-c2ccc(Cl)c(Cl)c2)c2c(N)c(C(N)=O)sc2n1` [Example 207], the pIC50 was 4.70 to 5.00 in experiment [1], 5.00 to 7.00 in experiment [2] and 4.70 to 5.00 in experiment [3].

In the case of `CC[C@H](CO)Nc1nc(-c2ccc(Cl)c(Cl)c2)c2c(N)c(C(N)=O)sc2n1` [Example 208], the pIC50 in experiment [1] was 5.00 to 7.00; in experiment [2] it was 5.00 to 7.00; in experiment [3], 4.70 to 5.00.

Take `NC(=O)c1sc2nc(NC3(CO)CC3)nc(-c3ccc(Cl)c(Cl)c3)c2c1N` [Example 210]: the pIC50 in experiment [1], in experiment [2] and in experiment [3] was 5.00 to 7.00 each time.

For `C[C@@H](O)[C@@H](C)Oc1nc(-c2ccc(Cl)c(Cl)c2)c2c(N)c(C(N)=O)sc2n1` [Example 214], the pIC50 in experiment [1], in experiment [2] and in experiment [3] was 5.00 to 7.00 each time.

With `CCCNc1nc(-c2ccc(Cl)c(Cl)c2)c2c(N)c(C(N)=O)sc2n1` [Example 217], the pIC50 is 4.70 to 5.00 in experiment [1], 5.00 to 7.00 in experiment [2] and 5.00 to 7.00 in experiment [3].

Turning to `CNCCNc1nc(-c2ccc(Cl)c(Cl)c2)c2c(N)c(C(N)=O)sc2n1` [Example 218], the pIC50 was 4.22 to 4.52 in experiment [1], 5.00 to 7.00 in experiment [2] and 4.70 to 5.00 in experiment [3].

In the case of `COCCNc1nc(-c2ccc(Cl)c(Cl)c2)c2c(N)c(C(N)=O)sc2n1` [Example 219], the pIC50 in experiment [1] is below 4.22; in experiment [2], 5.00 to 7.00; in experiment [3], below 4.22.

As for `NC(=O)c1sc2nc(NCC(O)CO)nc(-c3ccc(Cl)c(Cl)c3)c2c1N` (centres unmarked) [Example 220], the pIC50 in experiment [1] was 4.70 to 5.00; in experiment [2], 5.00 to 7.00; in experiment [3], 4.52 to 4.70.

`COCCCNc1nc(-c2ccc(Cl)c(Cl)c2)c2c(N)c(C(N)=O)sc2n1` [Example 222]: the pIC50 is 4.52 to 4.70 in experiment [1], 5.00 to 7.00 in experiment [2] and 4.52 to 4.70 in experiment [3].

For `NC(=O)c1sc2nc(N[C@H]3CCNC3)nc(-c3ccc(Cl)c(Cl)c3)c2c1N` [Example 224], the results for the pIC50 in experiment [1], in experiment [2] and in experiment [3] were 5.00 to 7.00, 5.00 to 7.00 and 4.70 to 5.00, respectively.

In the case of `NC(=O)c1sc2nc(N[C@@H]3CCNC3)nc(-c3ccc(Cl)c(Cl)c3)c2c1N` [Example 225], the pIC50 in experiment [1], in experiment [2] and in experiment [3] was 5.00 to 7.00 throughout.

Take `NC(=O)c1sc2nc(NC3CCNCC3)nc(-c3ccc(Cl)c(Cl)c3)c2c1N` [Example 226]: the pIC50 in experiment [1], in experiment [2] and in experiment [3] was 5.00 to 7.00 throughout.

In the case of `CC(C)c1nc(-c2ccc(Cl)c(Cl)c2)c2c(N)c(C(N)=O)sc2n1` [Example 238], the values for the pIC50 in experiment [1] and in experiment [2] were 4.70 to 5.00 and 5.00 to 7.00, respectively.

Turning to `CC(C)(CO)Nc1nc(-c2cccc(NC(=O)Nc3ccc(C(F)(F)F)cc3)c2)c2c(N)c(C(N)=O)sc2n1` [Example 257], the pIC50 in experiment [1] and in experiment [3] was 5.00 to 7.00 each time.

Regarding `NC(=O)c1sc2ncnc(-c3cccc(NC(=O)Nc4ccc(C(F)(F)F)cc4)c3)c2c1N` [Example 262], the pIC50 in experiment [1] and in experiment [3] was 5.00 to 7.00 each time.

Turning to `NC(=O)c1sc2ncnc(-c3ccc(Cl)c(Cl)c3)c2c1N` [Example 269], the pIC50 in experiment [1] and in experiment [3] was below 4.22 each time.

As usually defined, the pIC50 is the IC50 on a negative log10 scale, so that one unit is a factor of ten. Low readings indicate a high IC50, high ones a low IC50.
